Blank lines part the entries; values can stand above or below the compound they belong to.
Key:
[1] = target: T1, Alpha-1A adrenergic receptor (Homo sapiens) (UniProt P35348); experiment: Selectivity interaction (Eurofins CEREP Diversity Profile (receptors and ion channels)) EUB0000279b ADRA1A; conditions: at 10 µM
T1 sequence (whole entry): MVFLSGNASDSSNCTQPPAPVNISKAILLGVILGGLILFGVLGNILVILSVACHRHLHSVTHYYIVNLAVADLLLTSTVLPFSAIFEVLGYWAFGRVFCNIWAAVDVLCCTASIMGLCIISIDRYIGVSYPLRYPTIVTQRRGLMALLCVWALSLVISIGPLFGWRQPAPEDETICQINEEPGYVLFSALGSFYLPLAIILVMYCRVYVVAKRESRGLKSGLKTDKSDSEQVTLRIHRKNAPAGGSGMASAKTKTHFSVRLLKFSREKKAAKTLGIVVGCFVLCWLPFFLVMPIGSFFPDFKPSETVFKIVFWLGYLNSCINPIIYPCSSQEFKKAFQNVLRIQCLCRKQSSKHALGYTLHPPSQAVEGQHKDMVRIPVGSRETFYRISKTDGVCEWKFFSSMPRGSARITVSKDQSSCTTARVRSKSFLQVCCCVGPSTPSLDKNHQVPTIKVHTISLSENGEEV

[2] = target: NT-3 growth factor receptor (Homo sapiens, UniProt Q16288); experiment: Selectivity interaction (KinomeScan (DiscoverX)) EUB0001079a NTRK3; conditions: at 1 µM
[3] = target: Cyclin-dependent kinase-like 1 (Homo sapiens) (UniProt Q00532); experiment: Selectivity interaction (KinomeScan (DiscoverX)) EUB0000618a CDKL1; conditions: at 10 µM
[4] = target: Protein kinase C delta type (Homo sapiens) (UniProt Q05655); experiment: Selectivity interaction (SelectScreen profiling (Invitrogen)) EUB0000607a PRKCD; conditions: at 2 µM
[5] = target: T2, Serine/threonine-protein kinase LATS1 (Homo sapiens) (UniProt O95835); conditions: at 10 µM
T2 sequence (whole entry): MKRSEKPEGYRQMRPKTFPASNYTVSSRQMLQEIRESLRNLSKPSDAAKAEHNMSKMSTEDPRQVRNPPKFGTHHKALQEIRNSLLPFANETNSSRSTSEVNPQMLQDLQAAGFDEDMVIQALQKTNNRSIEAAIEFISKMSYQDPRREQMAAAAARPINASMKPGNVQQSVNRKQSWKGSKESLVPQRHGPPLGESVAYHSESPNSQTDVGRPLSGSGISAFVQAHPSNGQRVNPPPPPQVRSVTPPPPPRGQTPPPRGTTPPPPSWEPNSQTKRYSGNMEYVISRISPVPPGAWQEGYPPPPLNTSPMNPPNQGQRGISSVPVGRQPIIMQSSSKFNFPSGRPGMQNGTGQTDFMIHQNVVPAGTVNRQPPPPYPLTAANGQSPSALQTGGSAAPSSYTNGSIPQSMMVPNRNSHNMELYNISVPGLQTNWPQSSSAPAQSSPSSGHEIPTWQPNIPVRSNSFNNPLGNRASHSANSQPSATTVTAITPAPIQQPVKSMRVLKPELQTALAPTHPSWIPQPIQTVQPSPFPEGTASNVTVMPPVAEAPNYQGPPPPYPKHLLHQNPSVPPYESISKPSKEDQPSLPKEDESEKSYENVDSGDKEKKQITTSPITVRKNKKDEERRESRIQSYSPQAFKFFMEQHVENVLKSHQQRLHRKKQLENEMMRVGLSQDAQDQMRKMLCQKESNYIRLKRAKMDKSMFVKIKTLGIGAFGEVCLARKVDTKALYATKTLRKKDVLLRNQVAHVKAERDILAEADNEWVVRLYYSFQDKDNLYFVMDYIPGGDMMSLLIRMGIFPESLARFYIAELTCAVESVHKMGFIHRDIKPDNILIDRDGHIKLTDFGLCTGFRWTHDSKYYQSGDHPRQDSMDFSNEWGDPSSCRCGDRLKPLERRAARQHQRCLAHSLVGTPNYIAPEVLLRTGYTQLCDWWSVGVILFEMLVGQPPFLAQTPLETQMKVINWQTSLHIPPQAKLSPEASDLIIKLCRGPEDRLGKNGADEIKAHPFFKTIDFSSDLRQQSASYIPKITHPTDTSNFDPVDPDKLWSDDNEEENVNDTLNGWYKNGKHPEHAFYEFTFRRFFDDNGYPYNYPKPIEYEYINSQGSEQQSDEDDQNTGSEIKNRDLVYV

[6] = target: T3, Activin receptor type-1 (Homo sapiens) (UniProt Q04771); experiment: Selectivity interaction (KinomeScan (DiscoverX)) EUB0001049a ACVR1; conditions: at 1 µM
T3 sequence (whole entry): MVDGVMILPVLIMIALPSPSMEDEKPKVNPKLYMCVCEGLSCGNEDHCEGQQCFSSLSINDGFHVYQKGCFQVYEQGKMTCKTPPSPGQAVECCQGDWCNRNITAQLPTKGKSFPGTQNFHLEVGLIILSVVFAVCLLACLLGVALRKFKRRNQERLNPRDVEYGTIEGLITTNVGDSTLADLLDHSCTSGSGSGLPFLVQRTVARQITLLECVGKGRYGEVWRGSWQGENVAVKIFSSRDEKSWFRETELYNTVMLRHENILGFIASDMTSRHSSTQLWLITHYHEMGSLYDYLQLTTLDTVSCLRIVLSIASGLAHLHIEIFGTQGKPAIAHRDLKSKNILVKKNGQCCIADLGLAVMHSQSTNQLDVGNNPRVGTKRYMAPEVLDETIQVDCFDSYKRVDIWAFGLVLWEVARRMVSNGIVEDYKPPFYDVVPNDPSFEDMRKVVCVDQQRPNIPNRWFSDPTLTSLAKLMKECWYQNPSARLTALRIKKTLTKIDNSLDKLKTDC

[7] = target: CDK9/cyclin T1 (Homo sapiens) (UniProt O60563+P50750); experiment: Selectivity interaction (Adapta Assay) EUB0001632a CDK9; assay type: protein-complex assay; conditions: at 10 µM

Protein kinase C delta type (Homo sapiens), sequence (Q05655 whole entry, looked up): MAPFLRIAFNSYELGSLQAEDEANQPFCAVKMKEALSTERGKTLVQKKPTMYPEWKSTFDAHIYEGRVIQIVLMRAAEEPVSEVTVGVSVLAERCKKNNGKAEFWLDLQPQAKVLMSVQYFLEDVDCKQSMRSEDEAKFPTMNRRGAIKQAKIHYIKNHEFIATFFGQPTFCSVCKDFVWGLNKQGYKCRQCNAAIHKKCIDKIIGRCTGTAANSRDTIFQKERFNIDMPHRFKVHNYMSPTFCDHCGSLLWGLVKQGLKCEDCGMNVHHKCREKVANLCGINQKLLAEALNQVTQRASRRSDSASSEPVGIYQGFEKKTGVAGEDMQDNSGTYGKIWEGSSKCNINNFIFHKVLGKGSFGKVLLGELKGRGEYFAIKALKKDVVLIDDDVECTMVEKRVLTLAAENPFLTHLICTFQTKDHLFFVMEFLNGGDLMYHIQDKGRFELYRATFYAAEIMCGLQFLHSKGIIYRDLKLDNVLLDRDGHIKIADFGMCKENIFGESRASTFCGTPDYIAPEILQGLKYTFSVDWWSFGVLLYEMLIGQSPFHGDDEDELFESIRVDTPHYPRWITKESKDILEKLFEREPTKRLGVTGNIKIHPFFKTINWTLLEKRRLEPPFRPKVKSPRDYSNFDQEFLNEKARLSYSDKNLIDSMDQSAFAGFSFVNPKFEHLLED
NT-3 growth factor receptor, sequence (Q16288 32-839 limits assumed): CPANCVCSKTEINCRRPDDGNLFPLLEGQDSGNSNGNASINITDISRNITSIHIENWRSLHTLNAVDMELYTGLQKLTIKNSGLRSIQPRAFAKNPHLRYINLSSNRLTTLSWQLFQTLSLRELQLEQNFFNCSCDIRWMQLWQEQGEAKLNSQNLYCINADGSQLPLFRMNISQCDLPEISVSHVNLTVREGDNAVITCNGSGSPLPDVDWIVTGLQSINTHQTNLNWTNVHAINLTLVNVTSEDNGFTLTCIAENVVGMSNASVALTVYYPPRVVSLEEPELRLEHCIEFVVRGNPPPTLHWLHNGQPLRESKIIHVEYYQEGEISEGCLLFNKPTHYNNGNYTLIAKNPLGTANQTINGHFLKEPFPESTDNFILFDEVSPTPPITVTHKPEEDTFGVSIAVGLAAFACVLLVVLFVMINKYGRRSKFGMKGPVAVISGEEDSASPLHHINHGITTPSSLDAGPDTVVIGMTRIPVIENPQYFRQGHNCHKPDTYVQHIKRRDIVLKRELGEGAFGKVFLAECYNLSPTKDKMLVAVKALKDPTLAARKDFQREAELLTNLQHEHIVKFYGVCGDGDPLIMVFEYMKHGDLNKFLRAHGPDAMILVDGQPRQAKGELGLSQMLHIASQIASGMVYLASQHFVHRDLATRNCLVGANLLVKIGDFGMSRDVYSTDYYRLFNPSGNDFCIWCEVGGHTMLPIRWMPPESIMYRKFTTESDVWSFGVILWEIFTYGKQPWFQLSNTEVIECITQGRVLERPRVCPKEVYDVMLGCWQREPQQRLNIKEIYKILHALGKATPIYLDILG
Cyclin-dependent kinase-like 1 (Homo sapiens), sequence (Q00532 whole entry): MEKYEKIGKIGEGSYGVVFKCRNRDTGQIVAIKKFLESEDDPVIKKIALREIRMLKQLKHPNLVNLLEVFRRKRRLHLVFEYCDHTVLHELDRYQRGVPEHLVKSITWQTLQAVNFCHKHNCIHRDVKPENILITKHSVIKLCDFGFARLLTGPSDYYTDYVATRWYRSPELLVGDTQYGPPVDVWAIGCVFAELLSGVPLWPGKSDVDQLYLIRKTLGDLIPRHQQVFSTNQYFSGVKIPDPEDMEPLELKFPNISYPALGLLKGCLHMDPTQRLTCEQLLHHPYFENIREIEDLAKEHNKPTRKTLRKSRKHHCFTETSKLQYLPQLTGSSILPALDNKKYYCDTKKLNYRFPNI

- % of control [1]: 94%
SMILES: CC(=O)c1cc(-c2ccccc2OCC2CC2)c2ncccn12

SMILES: Nc1cnc(N2CCc3cc(S(=O)(=O)Nc4c(F)cc(Cl)cc4F)cc(N4CCCC4=O)c32)nc1 [TP-020n]
- % of control [2]: 97%

SMILES: O[C@H]1CC[C@H](Nc2ncc3nc(Nc4c(F)cc(F)cc4F)n([C@H]4CCOC4)c3n2)CC1
- % of control [3]: 95%

SMILES: CNC(=O)Nc1ccc(-c2nc(N3CC4CCC(C3)O4)c3cnn(C4CCC5(CC4)OCCO5)c3n2)cc1
- % of inhibition [4]: 16%

SMILES: Cc1cc([C@@H](C)Nc2ccccc2C(=O)O)c2nc(N3CCOCC3)cc(=O)n2c1 [AZD-6482]
- % of control [5]: 100%

SMILES: COc1cc(Nc2nc(C)cc(-c3cnn4nc(OC)ccc34)n2)cc(C(F)(F)F)c1
- % of control [6]: 78%

- % of inhibition [7]: 63.9%
SMILES: Cn1cc(-n2cnc3c(NCc4nc5cc(Cl)c(Cl)cc5[nH]4)nc(N4CCOCC4)nc32)cn1
